# Reference: publication PMC6379670, “An ultra-high affinity ligand of HIV-1 TAR reveals the RNA structure recognized by P-TEFb” (Nucleic Acids Research, 2018)
# Where two headings read alike, the source gives them in different places. Non-standard residues stand in square brackets, D forms with d. Residues, ends and D or L forms follow the SMILES beside them. hArg = N=C(N)NCCCC[C@H](N)C(=O)O
# Columns and labels:
# JB181 (synthetic) = assay: EMSA
# HIV-1 TAR RNA = type: binding; settings: EMSA, positional scanning library, Table S1
# Description: (§1) Electro Mobility Shift Assays (EMSA) and 2-aminopurine fluorescence ([35]) were used to measure peptide binding. For EMSA, all RNAs were 5′-dephosphorylated ([25],[26]) and 5′-rephosphorylated using T4 Polynucleotide Kinase (PNK); shifts were performed and analyzed as previously described ([14]). The P-TEFb/Tat1:57/AFF4 binding assays were run as described ([11]), with protein samples generously donated by Drs Ursula Schulze-Gahmen and James Hurley, but binding buffers contained 250× fold excess yeast tRNA. JB181-bound samples were prepared with 3× excess labeled HIV-TAR prior to titration with the pre-formed P-TEFb/Tat1:57/AFF4 complex.
# (§2) Fig. S1. a) HIV-1 TAR, BIV TAR and 7SK-SL4 RNAs have similar secondary structures, but the JB181 peptide discriminates between them. […]
# (§3) tightly than BIV TAR (3.3 nM) or 7SK (>3 μM) RNAs. b) EMSA of representative JB-peptides with 32P radiolabeled HIV-1 TAR RNA ([RNA]=75pM). The peptide concentration increases from left to right, as indicated. The dissociation constant can be estimated by the peptide concentration where there is an approximate 1:1 ratio (as established by visual inspection) between free RNA and complex, since the RNA concentration is much lower than the KD.
# (§4) (1 picture or pasted object on this page, not shown here)
# BIV TAR RNA = assay: EMSA binding to BIV TAR; settings: positional scanning library, Table S1
# Description: as §1, §2, §3, §4
# [1] = with tRNA, read-out: Kd (nM) w/tRNA
# [2] = without tRNA, read-out: Kd (nM) no tRNA
Compound,Kd (JB181 (synthetic)),Kd (HIV-1 TAR RNA; [1]),Kd (HIV-1 TAR RNA; [2]),Kd (BIV TAR RNA),"Kd (JB181 (synthetic); EMSA: 32P RNA (75-100 pM), 250-fold excess tRNA, buffer as in cited work (not given), 2-AP fluorescence: 100 fM RNA, NMR: 10 mM K phosphate pH 6.5, 10 mM NaCl …)"
"HIV-1 TAR A35G, G28C",10 nM,–,–,–,–
CC[C@H](C)[C@@H]1NC(=O)[C@H](CCCNC(=N)N)NC(=O)[C@H](C)NC(=O)[C@H](CCCNC(=N)N)NC(=O)[C@H](CCCNC(=N)N)NC(=O)CNC(=O)[C@H](CCCCN)NC(=O)[C@H](CCCNC(=N)N)NC(=O)[C@H]([C@@H](C)O)NC(=O)[C@H](CCCNC(=N)N)NC(=O)[C@H](C(C)C)NC(=O)[C@H](CCCNC(=N)N)NC(=O)[C@@H]2CCCN2C(=O)[C@H]2CCCN2C1=O [JB-75] (cyclo(RVRTRKGRRARI[dP]P)),–,300 nM,5 nM,1 to 5 nM,–
CC[C@H](C)[C@@H]1NC(=O)[C@H](CCCNC(=N)N)NC(=O)[C@H](CCCNC(=N)N)NC(=O)CNC(=O)[C@H](CCCCN)NC(=O)[C@H](CCCNC(=N)N)NC(=O)[C@H]([C@@H](C)O)NC(=O)[C@H](CCCNC(=N)N)NC(=O)[C@H](C(C)C)NC(=O)[C@H](CCCNC(=N)N)NC(=O)[C@@H]2CCCN2C(=O)[C@H]2CCCN2C(=O)[C@H](CC(C)C)NC(=O)[C@H](CCCNC(=N)N)NC1=O [JB-85] (cyclo(RVRTRKGRRIRL[dP]P)),–,50 nM,5 nM,1 nM,–
CC[C@H](C)[C@@H]1NC(=O)[C@H](CCCNC(=N)N)NC(=O)[C@H](C(C)C)NC(=O)[C@H](CCCNC(=N)N)NC(=O)[C@H](CCCNC(=N)N)NC(=O)CNC(=O)[C@H](CCCCN)NC(=O)[C@H](CCCNC(=N)N)NC(=O)[C@H]([C@@H](C)O)NC(=O)[C@H](CCCNC(=N)N)NC(=O)[C@H](C(C)C)NC(=O)[C@H](CCCNC(=N)N)NC(=O)[C@@H]2CCCN2C(=O)[C@H]2CCCN2C1=O [JB-76] (cyclo(RVRTRKGRRVRI[dP]P)),–,< 50 nM,1 nM,1 nM,–
HIV-1 TAR A35del,< 1.3 nM,–,–,–,–
CC[C@H](C)[C@@H]1NC(=O)[C@H](CCCNC(=N)N)NC(=O)[C@H](CCCNC(=N)N)NC(=O)CNC(=O)[C@H](CCCCN)NC(=O)[C@H](CCCNC(=N)N)NC(=O)[C@H]([C@@H](C)O)NC(=O)[C@H](CCCNC(=N)N)NC(=O)[C@H]([C@@H](C)O)NC(=O)[C@H](CCCNC(=N)N)NC(=O)[C@@H]2CCCN2C(=O)[C@H]2CCCN2C(=O)[C@H]([C@@H](C)CC)NC(=O)[C@H](CCCNC(=N)N)NC1=O [JB-65] (cyclo(RTRTRKGRRIRI[dP]P)),–,50 nM,1 nM,< 1 nM,–
"HIV-1 TAR G33A, G34A, G21A",70 nM,–,–,–,–
CC[C@H](C)[C@@H]1NC(=O)[C@H](CCCNC(=N)N)NC(=O)[C@H](CCCNC(=N)N)NC(=O)CNC(=O)[C@H](CCCCN)NC(=O)[C@H](CCCNC(=N)N)NC(=O)[C@H]([C@@H](C)O)NC(=O)[C@H](CCCNC(=N)N)NC(=O)[C@H](C(C)C)NC(=O)[C@H](CCCNC(=N)N)NC(=O)[C@@H]2CCCN2C(=O)[C@H]2CCCN2C(=O)[C@H](C(C)C)NC(=O)[C@H](CCCNC(=N)N)NC1=O [JB-84] (cyclo(RVRTRKGRRIRV[dP]P)),–,50 nM,1 nM,1 nM,–
CC[C@H](C)[C@@H]1NC(=O)[C@H](CCCNC(=N)N)NC(=O)[C@H](CCCNC(=N)N)NC(=O)CNC(=O)[C@H](CCCCN)NC(=O)[C@H](CCCNC(=N)N)NC(=O)[C@H]([C@@H](C)O)NC(=O)[C@H](CCCNC(=N)N)NC(=O)[C@H](C(C)C)NC(=O)[C@H](CCCCN)NC(=O)[C@@H]2CCCN2C(=O)[C@H]2CCCN2C(=O)[C@H]([C@@H](C)CC)NC(=O)[C@H](CCCNC(=N)N)NC1=O [JB-60] (cyclo(KVRTRKGRRIRI[dP]P)),–,300 nM,3 nM,> 5000 nM,–
HIV-1 TAR A35C,< 1.3 nM,–,–,–,–
CC[C@H](C)[C@@H]1NC(=O)[C@H](CCCNC(=N)N)NC(=O)[C@H](CCCNC(=N)N)NC(=O)CNC(=O)[C@H](CCCCN)NC(=O)[C@H](CCCNC(=N)N)NC(=O)[C@H]([C@@H](C)O)NC(=O)[C@H](CCCNC(=N)N)NC(=O)[C@H](C)NC(=O)[C@H](CCCNC(=N)N)NC(=O)[C@@H]2CCCN2C(=O)[C@H]2CCCN2C(=O)[C@H]([C@@H](C)CC)NC(=O)[C@H](CCCNC(=N)N)NC1=O [JB-66] (cyclo(RARTRKGRRIRI[dP]P)),–,100 nM,1 nM,1 nM,–
"HIV-1 TAR A35G, G28A",11 nM,–,–,–,–
7SK-SL4,–,–,–,–,> 3000 nM
GGCUCGUGUAGCUCAUUAGCUCCGAGCC [BIV TAR],3.3 nM,–,–,–,–
CC[C@H](C)[C@@H]1NC(=O)[C@H](CCCNC(=N)N)NC(=O)[C@H](CCCNC(=N)N)NC(=O)CNC(=O)[C@H](CCCCN)NC(=O)[C@H](CCCNC(=N)N)NC(=O)[C@H]([C@@H](C)O)NC(=O)[C@H](CCCNC(=N)N)NC(=O)[C@H](CC(N)=O)NC(=O)[C@H](CCCNC(=N)N)NC(=O)[C@@H]2CCCN2C(=O)[C@H]2CCCN2C(=O)[C@H]([C@@H](C)CC)NC(=O)[C@H](CCCNC(=N)N)NC1=O [JB-63] (cyclo(RNRTRKGRRIRI[dP]P)),–,100 nM,1 nM,< 1 nM,–
CC[C@H](C)[C@@H]1NC(=O)[C@H](CCCNC(=N)N)NC(=O)[C@H](CCCNC(=N)N)NC(=O)CNC(=O)[C@H](CCCCN)NC(=O)[C@H](CCCNC(=N)N)NC(=O)[C@H]([C@@H](C)O)NC(=O)[C@H](CCCNC(=N)N)NC(=O)[C@H](Cc2ccc(O)cc2)NC(=O)[C@H](CCCNC(=N)N)NC(=O)[C@@H]2CCCN2C(=O)[C@H]2CCCN2C(=O)[C@H]([C@@H](C)CC)NC(=O)[C@H](CCCNC(=N)N)NC1=O [JB-62] (cyclo(RYRTRKGRRIRI[dP]P)),–,150 nM,1 to 5 nM,10 nM,–
CC[C@H](C)[C@@H]1NC(=O)[C@H](CCCNC(=N)N)NC(=O)[C@H](CCCNC(=N)N)NC(=O)CNC(=O)[C@H](CCCCN)NC(=O)[C@H](CCC(N)=O)NC(=O)[C@H]([C@@H](C)O)NC(=O)[C@H](CCCNC(=N)N)NC(=O)[C@H](C(C)C)NC(=O)[C@H](CCCNC(=N)N)NC(=O)[C@@H]2CCCN2C(=O)[C@H]2CCCN2C(=O)[C@H]([C@@H](C)CC)NC(=O)[C@H](CCCNC(=N)N)NC1=O [JB-67] (cyclo(RVRTQKGRRIRI[dP]P)),–,> 1000 nM,–,–,–
"HIV-1 TAR G32A, G36A",< 0.166 nM,–,–,–,–
CC[C@H](C)[C@@H]1NC(=O)[C@H](CCCNC(=N)N)NC(=O)[C@H](CCCNC(=N)N)NC(=O)CNC(=O)[C@H](CCCCN)NC(=O)[C@H](CCCNC(=N)N)NC(=O)[C@H]([C@@H](C)O)NC(=O)[C@@H](CCCNC(=N)N)NC(=O)[C@H](C(C)C)NC(=O)[C@H](CCCNC(=N)N)NC(=O)[C@@H]2CCCN2C(=O)[C@H]2CCCN2C(=O)[C@H]([C@@H](C)CC)NC(=O)[C@H](CCCNC(=N)N)NC1=O [JB-72] (cyclo(RV[dR]TRKGRRIRI[dP]P)),–,> 1000 nM,–,–,–
HIV-1 TAR U25C,1 nM,–,–,–,–
CC[C@H](C)[C@@H]1NC(=O)[C@H](CCCNC(=N)N)NC(=O)[C@H](CCCNC(=N)N)NC(=O)CNC(=O)[C@H](CCCCN)NC(=O)[C@H](CCCNC(=N)N)NC(=O)[C@H]([C@@H](C)O)NC(=O)[C@H](CCCNC(=N)N)NC(=O)[C@H](C(C)C)NC(=O)[C@H](CCCCNC(=N)N)NC(=O)[C@@H]2CCCN2C(=O)[C@H]2CCCN2C(=O)[C@H]([C@@H](C)CC)NC(=O)[C@H](CCCNC(=N)N)NC1=O [KP-Y-01] (cyclo([hArg]VRTRKGRRIRI[dP]P)),–,150 nM,–,–,–
CC[C@H](C)[C@@H]1NC(=O)[C@H](Cc2ccc(O)cc2)NC(=O)[C@H](CCCNC(=N)N)NC(=O)CNC(=O)[C@H](CCCCN)NC(=O)[C@H](CCCNC(=N)N)NC(=O)[C@H]([C@@H](C)O)NC(=O)[C@H](CCCNC(=N)N)NC(=O)[C@H](C(C)C)NC(=O)[C@H](CCCNC(=N)N)NC(=O)[C@@H]2CCCN2C(=O)[C@H]2CCCN2C(=O)[C@H]([C@@H](C)CC)NC(=O)[C@H](CCCNC(=N)N)NC1=O [JB-73] (cyclo(RVRTRKGRYIRI[dP]P)),–,> 1000 nM,–,–,–
